Like-named read-outs stand apart in the source and are kept apart here.
Experiments:
TRKB kinase = TRKB kinase (Homo sapiens, UniProt Q16620); test: Biochemical kinase analysis (HTRF), TRKB; conditions: 23° C., read-out: Kinase IC50 (nM) TRK B
Procedure: (§1) Inhibition of TRKA, TRKB, TRKC kinases can be measured by HTRF ([…]) method. The reaction was performed in a 384-well plate at 23° C. with a volume of 20 μL. TRKA TRKB or TRKC kinase were mixed with pre-formulated and diluted compounds of different concentrations for ten minutes in duplicate for each concentration, wherein 11 concentrations made with a 3-fold gradient dilution from the starting concentration of 300 nM were made and the final concentration of DMSO was 2%. The corresponding substrate and ATP were added thereto, and reacted at room temperature for 20 minutes (both a negative and a positive control were set: negative control is blank control, positive control is Entrectinib). After the reaction, detection reagent was added thereto (reagent in HTRF Kinase TK kit), and after incubation at room temperature for 30 minutes, detection was carried out by PerkinElmer Envision microplate reader for determining enzyme activity in the presence of the compounds of the present disclosure at various concentrations, and the inhibitory activity of different concentrations of compounds against enzyme activity was calculated. After that, in accordance with four-factors function and Graphpad 5.0 software, inhibitory activity on enzyme activity under different concentrations of compounds was fitted and IC50 values were calculated.

TRKA kinase = TRKA kinase (Homo sapiens, UniProt P04629); test: Biochemical kinase analysis (HTRF), TRKA; conditions: 23° C., read-out: Kinase IC50 (nM) TRK A
Sequence of TRKA kinase (P04629 33-796): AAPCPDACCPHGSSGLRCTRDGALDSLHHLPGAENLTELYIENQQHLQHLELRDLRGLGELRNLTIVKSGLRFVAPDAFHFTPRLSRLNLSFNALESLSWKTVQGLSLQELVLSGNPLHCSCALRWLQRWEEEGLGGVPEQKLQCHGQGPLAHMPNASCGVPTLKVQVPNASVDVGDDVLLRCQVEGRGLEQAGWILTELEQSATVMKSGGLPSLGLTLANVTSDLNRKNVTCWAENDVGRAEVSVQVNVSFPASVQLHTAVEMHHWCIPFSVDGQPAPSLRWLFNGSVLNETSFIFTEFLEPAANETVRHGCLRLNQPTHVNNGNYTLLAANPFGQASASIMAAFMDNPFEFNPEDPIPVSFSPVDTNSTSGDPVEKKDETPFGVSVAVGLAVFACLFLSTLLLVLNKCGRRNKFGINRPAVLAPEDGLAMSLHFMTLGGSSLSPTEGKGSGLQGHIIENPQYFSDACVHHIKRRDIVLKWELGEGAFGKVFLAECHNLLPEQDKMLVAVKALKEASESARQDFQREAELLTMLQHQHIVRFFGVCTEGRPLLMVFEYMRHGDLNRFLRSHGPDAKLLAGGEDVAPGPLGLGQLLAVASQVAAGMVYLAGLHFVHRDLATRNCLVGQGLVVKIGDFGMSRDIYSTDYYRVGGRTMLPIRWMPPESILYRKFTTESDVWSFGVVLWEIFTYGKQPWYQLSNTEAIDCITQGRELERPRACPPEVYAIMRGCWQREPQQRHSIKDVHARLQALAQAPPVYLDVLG
Procedure: as §1

KM12 cell line = test: KM12 cell proliferation analysis (CellTiter-Glo); assay type: cell-based; conditions: Homo sapiens, 72 h
Procedure: The CGT method was used to detect the in vitro anti-proliferative activity of the compounds of the present disclosure on tumor cells cultured in vitro. The KM12 cell line was maintained in RPMI-1640 medium containing 10% fetal bovine serum and antibiotics, the cells in the logarithmic growth phase were harvested and planted in a 96-well plate. The plate was incubated in an incubator at 37° C., containing 5% carbon dioxide gas overnight. After the test compounds were dissolved in DMSO, a 3-fold concentration gradient dilution with 9 compound concentrations was made. Pre-prepared compounds of different concentrations were transferred to the cell plate in triplicate for each concentration, and continue culturing for 72 h. The final concentration of DMSO in the system was 0.1%, and the initial concentration of the test compound was 300 nM.
CellTiter-Glo reagent was added to the cell plate, and incubated at room temperature for 30 minutes to stabilize the optical signal. Detection was carried out by PerkinElmer Envision microplate reader for determining the inhibitory activity of the compound of the present disclosure at various concentrations on cell proliferation. The inhibitory activity of compounds at different concentrations on cell proliferation was fitted according to Graphpad 5.0 software, and IC50 values were calculated.

TRKC kinase = TRKC kinase (Homo sapiens, UniProt Q16288); test: Biochemical kinase analysis (HTRF), TRKC; conditions: 23° C., read-out: Kinase IC50 (nM) TRK C
Sequence of TRKC kinase (Q16288 32-839): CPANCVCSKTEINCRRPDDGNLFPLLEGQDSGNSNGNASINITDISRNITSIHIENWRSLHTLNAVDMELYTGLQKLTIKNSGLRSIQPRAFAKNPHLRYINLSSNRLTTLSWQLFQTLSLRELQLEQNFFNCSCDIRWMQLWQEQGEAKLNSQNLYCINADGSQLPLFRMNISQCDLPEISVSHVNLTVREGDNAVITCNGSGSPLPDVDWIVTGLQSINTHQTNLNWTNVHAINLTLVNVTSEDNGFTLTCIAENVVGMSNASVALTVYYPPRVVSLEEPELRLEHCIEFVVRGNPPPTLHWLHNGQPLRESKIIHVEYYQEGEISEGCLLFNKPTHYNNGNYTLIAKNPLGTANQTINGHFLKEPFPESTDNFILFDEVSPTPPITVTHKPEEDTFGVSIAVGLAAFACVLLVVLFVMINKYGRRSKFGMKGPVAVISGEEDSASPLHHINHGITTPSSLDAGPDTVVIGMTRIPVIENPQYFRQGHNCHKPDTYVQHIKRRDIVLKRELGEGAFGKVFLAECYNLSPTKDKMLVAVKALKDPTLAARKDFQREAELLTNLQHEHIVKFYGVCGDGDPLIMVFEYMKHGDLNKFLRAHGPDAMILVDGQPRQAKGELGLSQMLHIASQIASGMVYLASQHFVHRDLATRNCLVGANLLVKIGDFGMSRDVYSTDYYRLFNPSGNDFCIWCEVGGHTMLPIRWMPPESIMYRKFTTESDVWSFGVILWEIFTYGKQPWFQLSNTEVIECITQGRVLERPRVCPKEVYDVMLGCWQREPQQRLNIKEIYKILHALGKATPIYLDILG
Procedure: as §1

[1] = Pharmacokinetic experiment in rats; assay type: in vivo, Sprague-Dawley rats; parameters: Cl_pred (L/kg): unit not given here; conditions: rat; for AUC(0-t) / Cmax / Tmax / half-life / AUC(0-inf) / MRT inf / bioavailability: male, Sprague-Dawley, plasma; for AUC(0-inf): read-out: AUCINF_pred; for MRT inf: read-out: MRTINF_pred; for bioavailability: PO 10 mg/kg vs IV 3 mg/kg
Procedure: 6 male Sprague-Dawley rats (7-8 weeks old, and weighing approximately 210 g) were divided into 2 groups with 3 rats in each group. The rats were intravenously or orally administered a single dose of compounds (3 mg/kg intravenously, 10 mg/kg orally) to compare pharmacokinetic differences.
The rats were feeded on standard food and water. Fasting was started 16 hours before the test. The drug was dissolved in PEG400 and dimethyl sulfoxide. The blood samples were collected from eyelids at the time points of 0.083 hour, 0.25 hour, 0.5 hour, 1 hour, 2 hours, 4 hours, 6 hours, 8 hours, 12 hours, and 24 hours after administration.
Rats were briefly anesthetized after inhalation of diethyl ether and 300 μL of blood sample was collected from the eyelids into test tubes. There was 30 μL of 1% heparin salt solution in the test tube. Tubes were dried at 60° C. overnight before use. After the blood sample was collected at the last time point, the rats were sacrificed after ether anesthesia.
Immediately after the collection of the blood sample, the test tube was gently inverted at least 5 times to ensure sufficient mixing and then placed on ice. The blood sample was centrifuged at 5000 rpm at 4° C. for 5 minutes to separate the plasma from the red blood cells. 100 μL of plasma was aspirated into a clean plastic centrifuge tube with a pipette, marking with the name of the compound and time point. Plasma was stored at −80° C. prior to analysis. The concentration of the compound of the present disclosure in plasma was determined by LC-MS/MS. The pharmacokinetic parameters were calculated based on the blood concentration of the drug for each animal at different time points.

Sequence of TRKB kinase (Q16620 32-822): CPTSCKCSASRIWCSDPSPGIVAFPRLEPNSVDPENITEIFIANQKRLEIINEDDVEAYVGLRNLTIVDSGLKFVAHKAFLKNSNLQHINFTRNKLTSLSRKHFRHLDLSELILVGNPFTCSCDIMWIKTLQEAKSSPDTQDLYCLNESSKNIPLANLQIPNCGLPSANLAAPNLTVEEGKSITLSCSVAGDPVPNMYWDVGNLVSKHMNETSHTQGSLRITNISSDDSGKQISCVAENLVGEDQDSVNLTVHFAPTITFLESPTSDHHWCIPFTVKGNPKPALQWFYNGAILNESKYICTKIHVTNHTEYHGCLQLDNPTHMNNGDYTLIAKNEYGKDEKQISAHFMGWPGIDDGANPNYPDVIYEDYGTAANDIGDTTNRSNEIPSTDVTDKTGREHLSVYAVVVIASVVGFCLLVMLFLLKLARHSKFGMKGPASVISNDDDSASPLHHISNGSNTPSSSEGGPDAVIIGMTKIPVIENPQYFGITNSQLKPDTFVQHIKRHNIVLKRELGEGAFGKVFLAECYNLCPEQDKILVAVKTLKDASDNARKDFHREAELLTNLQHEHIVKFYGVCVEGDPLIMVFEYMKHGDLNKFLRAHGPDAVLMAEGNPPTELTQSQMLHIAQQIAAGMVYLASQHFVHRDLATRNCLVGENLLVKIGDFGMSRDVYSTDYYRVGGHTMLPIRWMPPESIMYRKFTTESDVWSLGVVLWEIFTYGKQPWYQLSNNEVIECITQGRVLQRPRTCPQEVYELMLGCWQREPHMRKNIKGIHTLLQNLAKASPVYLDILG

SMILES | IC50 (TRKB kinase) [nM] | IC50 (TRKA kinase) [nM] | IC50 (KM12 cell line) [nM] | IC50 (TRKC kinase) [nM] | AUC(0-t) ([1]; IV 3 mg/kg) [ng·h/mL] | Cmax ([1]; IV 3 mg/kg) [ng/mL] | Tmax ([1]; IV 3 mg/kg) [h] | half-life ([1]; IV 3 mg/kg) [h] | AUC(0-inf) ([1]; IV 3 mg/kg) [ng·h/mL] | MRT inf ([1]; IV 3 mg/kg) [h] | AUC(0-t) ([1]; PO 10 mg/kg) [ng·h/mL] | Cmax ([1]; PO 10 mg/kg) [ng/mL] | Tmax ([1]; PO 10 mg/kg) [h] | half-life ([1]; PO 10 mg/kg) [h] | bioavailability [1] [%] | AUC(0-inf) ([1]; PO 10 mg/kg) [ng·h/mL] | MRT inf ([1]; PO 10 mg/kg) [h] | Vz_pred ([1]; IV 3 mg/kg) [L/kg] | Vz_pred ([1]; PO 10 mg/kg) [L/kg] | other results
O=C1CCOc2ccc(F)cc2C2CCCN2c2ccn3ncc(c3n2)N1 (racemic) [Compound 9a, 9-fluoro-13-oxa-2,17,20,21,24-pentaazapentacyclo[16.5.2.0^2,6.0^7,12.0^21,25]pentacosane-1(24),7,9,11,18(25),19,22-heptaene-16-one] | 0.1 | 0.17 | 1.78 | 0.1 | – | – | – | – | – | – | – | – | – | – | – | – | – | – | – | –
O=C1CCOc2ccc(F)cc2[C@H]2CCCN2c2ccn3ncc(c3n2)N1 [Compound L-1-A, (6R)-9-fluoro-13-oxa-2,7,20,21,24-pentaazapentacyclo[16.5.2.0^26.0^7,12.0^21,25]pentacosane-1(24),7,9,11,18(25),19,22-heptaene-16-one] | 0.1 | 0.18 | 0.55 | 0.14 | 5010 | 2160 | 0.08 | 2.2 | 5030 | 2.18 | 11300 | 1490 | 1.58 | 5.77 | 67.9 | 11300 | 4.9 | 1.75 | 2.92 | Cl_pred (L/kg) ([1]; IV 3 mg/kg): 0.60; Cl_pred (L/kg) ([1]; PO 10 mg/kg): 0.92
O=C1CCOc2ccc(F)cc2[C@@H]2CCCN2c2ccn3ncc(c3n2)N1 [Compound L-1-B, (6S)-9-fluoro-13-oxa-2,17,20,21,24-pentaazapentacyclo[16.5.2.0^2,6.0^7,12.0^21,25]pentacosane-1(24),7,9,11,18(25),19,22-heptaene-16-one] | 15.5 | 21.1 | 162 | 14.2 | – | – | – | – | – | – | – | – | – | – | – | – | – | – | – | –
C[C@H]1CC(=O)Nc2cnn3ccc(nc23)N2CCC[C@@H]2c2cc(F)ccc2O1 [Compound L-2-A, (6R,14S)-9-fluoro-14-methyl-13-oxa-2,17,20,21,24-pentaazapentacyclo[16.5.2.0^2,6.0^7,12.0^21,25]pentacosane-1(24),7,9,11,18(25),19,22-heptaene-16-one] | 0.1 | 0.17 | 0.25 | 0.1 | 2480 | 1620 | 0.08 | 2.41 | 2480 | 1.2 | 4470 | 1410 | 0.5 | 2.02 | 54.2 | 4530 | 2.8 | 1.85 | 8.50 | Cl_pred (L/kg) ([1]; IV 3 mg/kg): 1.23; Cl_pred (L/kg) ([1]; PO 10 mg/kg): 2.44
C[C@H]1CC(=O)Nc2cnn3ccc(nc23)N2CCC[C@H]2c2cc(F)ccc2O1 [Compound L-2-B, (6S,14S)-9-fluoro-14-methyl-13-oxa-2,17,20,21,24-pentaazapentacyclo[16.5.2.0^2,6.0^7,12.0^21,25]pentacosane-1(24),7,9,11,18(25),19,22-heptaene-16-one] | 0.13 | 0.41 | 0.65 | 0.18 | – | – | – | – | – | – | – | – | – | – | – | – | – | – | – | –
CC1(C)COc2ccc(F)cc2[C@@H]2CCCN2c2ccn3ncc(c3n2)NC1=O [Compound L-3-B, (6S)-9-fluoro-15,15-dimethyl-13-oxa-2,17,20,21,24-pentaazapentacyclo[16.5.2.0^2,6.0^7,12.0^21,25]pentacosane-1(24),7,9,11,18(25),19,22-heptaene-16-one] | 70.8 | > 100 | – | > 100 | – | – | – | – | – | – | – | – | – | – | – | – | – | – | – | –
C[C@H]1Nc2ccn3ncc(c3n2)NC(=O)CCOc2ccc(F)cc21 [Compound T-1, (13R)-11-fluoro-13-methyl-6,7,13,14-tetrahydro-1,15-ethenopyrazolo[4,3-f][1,4,8,10]benzoxatriazacyclotridecin-5(6H)-one] | < 0.17 | < 0.17 | 5.13 | < 0.17 | 6240 | 2120 | 0.08 | 9.05 | 6350 | 4.04 | 11500 | 1860 | 1.67 | 0.36 | 55.5 | 13100 | 6.23 | 3.28 | 10.05 | Cl_pred (L/kg) ([1]; IV 3 mg/kg): 0.47; Cl_pred (L/kg) ([1]; PO 10 mg/kg): 0.77
C[C@@H]1Nc2ccn3ncc(c3n2)NC(=O)C[C@H](C)Oc2ccc(F)cc21 [Compound T-2-B, (7S,13S)-11-fluoro-7,13-dimethyl-6,7,13,14-tetrahydro-1,15-ethenopyrazolo[4,3-f][1,4,8,10]benzoxatriazacyclotidecin-5(6H)-one] | 0.09 | 0.36 | 4.79 | 0.09 | – | – | – | – | – | – | – | – | – | – | – | – | – | – | – | –
C[C@H]1Nc2ccn3ncc(c3n2)NC(=O)C(C)(C)COc2ccc(F)cc21 [Compound T-3] | 0.57 | 0.34 | – | 0.52 | – | – | – | – | – | – | – | – | – | – | – | – | – | – | – | –
C[C@H]1Nc2ccn3ncc(c3n2)NC(=O)NCCOc2ccc(F)cc21 [Compound T-4, (14R)-12-fluoro-14-methyl-5,6,7,8,14,15-hexahydro-1,16-ethenopyrazolo[4,3-g][1,4,9,11]benzoxatetraazacyclotetradecin-5(6H)-one] | 5.31 | 4.91 | – | 5.41 | – | – | – | – | – | – | – | – | – | – | – | – | – | – | – | –
C[C@H]1Nc2ccn3ncc(c3n2)NC(=O)NCCCc2ccc(F)cc21 [Compound T-5, (14R)-12-fluoro-14-methyl-5,6,7,8,14,15-hexahydro-1,16-ethenopyrazolo[4,3-g][1,4,9,11]benzodioadiazatridecin-5(6H)-one] | 225 | 93.9 | – | 258 | – | – | – | – | – | – | – | – | – | – | – | – | – | – | – | –
C[C@@H]1CCc2ncc(F)cc2[C@H]2CCCN2c2ccn3ncc(c3n2)C(=O)N1 [LOXO-195, reference compound] | – | – | 2.73 | – | 4670 | 5010 | 0.08 | 1.45 | 4670 | 0.54 | 4070 | 1660 | 0.33 | 4.11 | 26.2 | 4090 | 2.31 | 0.75 | 5.13 | –
C[C@H]1CNC(=O)c2cnn3ccc(nc23)N[C@H](C)c2cc(F)ccc2O1 [TPX-0005, reference compound] | – | – | 1.97 | – | 3560 | 2190 | 0.08 | 5.77 | 3580 | 1.76 | 5470 | 732 | 1.67 | 0.76 | 46.1 | 5590 | 5.42 | 4.46 | 15.81 | –

Reference: patent publication US11358973B2, “Di(hetero)aryl macrocyclic compound for inhibiting protein kinase activity” (Shenzhen TargetRx, Inc., priority 2018, dated 2022)
